Biological target: T1, fructokinase (ketohexokinase, KHK) (Homo sapiens, UniProt P50053)
T1 sequence (P50053 1-298): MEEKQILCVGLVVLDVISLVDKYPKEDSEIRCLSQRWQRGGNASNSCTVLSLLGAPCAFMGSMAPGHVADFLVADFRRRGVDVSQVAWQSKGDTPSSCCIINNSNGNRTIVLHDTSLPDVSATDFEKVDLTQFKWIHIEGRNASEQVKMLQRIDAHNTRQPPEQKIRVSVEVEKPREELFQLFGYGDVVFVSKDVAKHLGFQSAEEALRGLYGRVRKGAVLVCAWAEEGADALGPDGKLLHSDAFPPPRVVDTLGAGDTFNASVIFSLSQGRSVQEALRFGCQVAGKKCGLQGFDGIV
Assay: fructose-dependent ATP depletion assay in HK-2 (human proximal tubule) cell lysates, KHK-deficient HK-2 cells as background control
Format: biochemical

IC50: 11.2 µM
SMILES: O=c1cc(-c2ccc(O)c(O)c2)oc2cc(O)cc(O)c12 [luteolin]

— paper PMC5316807, “Protective role of fructokinase blockade in the pathogenesis of acute kidney injury in mice” (Nature Communications, 2017)
